For 19 compounds, IC50 results are on record in patent US10494376B2, “Tetrahydroisoquinoline derived PRMT5-inhibitors” (CTXT PTY LTD, priority 2014, dated 2019).

Assay [1] deals with symmetrical dimethylation of arginine (Di-Methyl Histone H4 Arginine 3) in cell line TE11. Kind of assay: Revised PRMT5 Biomarker Assay (Di-Methyl Histone H4 Arginine 3 immunofluorescence). The format is cell-based. Conditions: Homo sapiens, TE-11, TE11 cells, 72 hours. Here is the method: Compounds of the invention may be tested for potency to inhibit symmetrical dimethylation of arginine in the following assay:
The cell line TE11 was seeded at a density of 6,000 cells per well in 96 well optical quality tissue culture plates in DME medium and 10% foetal bovine serum, and allowed to adhere for 5 hours under standard culture conditions (37 degree Celsius, 5% CO2). […] After incubation for 72 hours, the cells were fixed with 3.7% formaldehyde in PBS for 30 minutes at room temperature, washed with phosphate buffer saline and blocked with Odyssey blocking buffer (LI-COR, Lincoln, Nebr.). Rabbit anti-Di-Methyl Histone H4 Arginine 3 specific antibody (Epigentek) in Odyssey blocking buffer was added and incubated for 14 hours at 4 degree Celsius. […] Alternatively, the plates were imaged on a PerkinElmer Phenix high content imaging platform. […] The resulting mean intensity per cell was directly converted to percent inhibition as outlined above (IC50, imager based).

Assay [2] addresses Full-length PRMT5 enzyme (NCBI Reference sequence NP_006100.2) co-expressed with His6-MEP50 (Homo sapiens (Human), UniProt O14744). In words: Revised PRMT5 Biochemical Assay. The conditions noted are these: 1 μM peptide substrate, 1 μM S-Adenosyl methionine, 4 hours at 37 degree Celsius, Transcreener EPIGEN fluorescence polarisation. A digest of the protocol: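 Full-length PRMT5 co-expressed with His6-MEP50 in insect cells (15 ng/reaction) was run with 1 μM H4-derived peptide and 1 μM SAM in PBS, 0.01% Tween-20, 0.01% albumin and 1 mM DTT for 4 h at 37 °C. Product was read by Transcreener EPIGEN fluorescence polarisation, and IC50 came from a 4-parameter fit.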

[3] abbreviates: PerkinElmer Envision fluorescence intensity, corrected for Hoechst 33342, read-out: IC50 - plate-reader based.
[4] abbreviates: PerkinElmer Phenix high content imaging, mean intensity per cell, read-out: IC50 - image based.

SMILES strings stand for the structures. Where a name gives a salt, the structure may show the parent alone. Read-outs that look alike come from different tables or passages of the source.

Chain of Full-length PRMT5 enzyme (NCBI Reference sequence NP_006100.2) co-expressed with His6-MEP50 (O14744 whole entry): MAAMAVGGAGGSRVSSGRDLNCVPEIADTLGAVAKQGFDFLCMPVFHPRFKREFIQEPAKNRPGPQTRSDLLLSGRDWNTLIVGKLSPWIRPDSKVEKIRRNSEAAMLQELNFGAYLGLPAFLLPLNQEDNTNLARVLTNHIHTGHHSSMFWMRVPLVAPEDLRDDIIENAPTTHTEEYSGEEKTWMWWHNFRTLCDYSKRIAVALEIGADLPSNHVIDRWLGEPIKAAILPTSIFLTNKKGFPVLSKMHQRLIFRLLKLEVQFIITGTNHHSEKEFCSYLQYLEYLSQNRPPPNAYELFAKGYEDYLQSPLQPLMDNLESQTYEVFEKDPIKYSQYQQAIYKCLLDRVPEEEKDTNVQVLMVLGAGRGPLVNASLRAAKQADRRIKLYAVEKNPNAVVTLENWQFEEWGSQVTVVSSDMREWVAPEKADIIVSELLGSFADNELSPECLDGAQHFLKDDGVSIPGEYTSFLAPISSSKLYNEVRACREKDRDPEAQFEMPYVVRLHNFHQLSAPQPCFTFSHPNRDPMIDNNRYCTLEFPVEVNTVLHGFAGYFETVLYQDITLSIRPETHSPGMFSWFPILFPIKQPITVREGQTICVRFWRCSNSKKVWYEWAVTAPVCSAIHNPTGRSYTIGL
Chain of Full-length PRMT5 enzyme (NCBI Reference sequence NP_006100.2) co-expressed with His6-MEP50 (Q9BQA1 whole entry partner): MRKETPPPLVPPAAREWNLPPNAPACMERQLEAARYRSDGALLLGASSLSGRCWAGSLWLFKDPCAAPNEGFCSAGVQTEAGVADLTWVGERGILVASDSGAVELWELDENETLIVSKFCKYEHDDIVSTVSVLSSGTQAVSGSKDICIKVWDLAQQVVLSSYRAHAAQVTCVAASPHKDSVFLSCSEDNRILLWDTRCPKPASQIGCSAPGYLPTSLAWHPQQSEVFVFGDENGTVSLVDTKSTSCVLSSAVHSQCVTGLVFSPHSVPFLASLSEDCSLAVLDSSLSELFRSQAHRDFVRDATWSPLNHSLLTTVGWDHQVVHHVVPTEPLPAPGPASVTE

By IC50 is commonly meant the point on the concentration scale where inhibition reaches its midpoint. In the case of `COC(=O)N1CCC(Oc2cc(C(=O)NC[C@@H](O)[C@@H]3Cc4ccccc4CN3)ccn2)CC1` [Example 27, Methyl 4-((4-(((R)-2-hydroxy-2-((S)-1,2,3,4-tetrahydroisoquinolin-3-yl)ethyl)carbamoyl)pyridin-2-yl)oxy)piperidine-1-carboxylate bis(2,2,2-trifluoroacetic acid) salt], the IC50 was 7 nM in assay [1] (setting [3]) and 44 nM in assay [2].

Consider `O=C(NC[C@@H](O)[C@@H]1Cc2ccccc2CN1)c1ccc(C(=O)N2CCOCC2)cc1` [Example 28, N-((R)-2-Hydroxy-2-((S)-1,2,3,4-tetrahydroisoquinolin-3-yl)ethyl)-4-(morpholine-4-carbonyl)benzamide hydrochloride], for which the IC50 in assay [1] (setting [3]) is 12 nM; in assay [2], 180 nM.

As to `O=C(NC[C@@H](O)[C@@H]1Cc2ccccc2CN1)c1ccc(C(=O)N2CCS(=O)(=O)CC2)cc1` [Example 37, 4-(1,1-Dioxidothiomorpholine-4-carbonyl)-N-((R)-2-hydroxy-2-((S)-1,2,3,4-tetrahydroisoquinolin-3-yl)ethyl)benzamide], the IC50 in assay [1] (setting [3]) is 254 nM; in assay [2] it was 105 nM.

Turning to `O=C(NC[C@@H](O)[C@@H]1Cc2ccccc2CN1)c1ccc(C(=O)N2C3CCC2COC3)cc1` [Example 49, 4-(3-Oxa-8-azabicyclo[3.2.1]octane-8-carbonyl)-N—((R)-2-hydroxy-2-((S)-1,2,3,4-tetrahydroisoquinolin-3-yl)ethyl)benzamide hydrochloride], the results for the IC50 in assay [1] (setting [3]), in assay [1] (setting [4]) and in assay [2] were 6 nM, 1 nM and 38 nM, respectively.

Regarding `CCOc1cc(C(=O)N2C3CCC2COC3)ccc1C(=O)NC[C@@H](O)[C@@H]1Cc2ccccc2CN1` [Example 50, 4-(3-Oxa-8-azabicyclo[3.2.1]octane-8-carbonyl)-2-ethoxy-N—((R)-2-hydroxy-2-((S)-1,2,3,4-tetrahydroisoquinolin-3-yl)ethyl)benzamide hydrochloride], the IC50 was determined as 0.3 nM in assay [1] (setting [3]), 0.3 nM in assay [1] (setting [4]) and 19 nM in assay [2].

Regarding `CC(=O)N1CCC(Nc2cc(C(=O)NC[C@@H](O)[C@@H]3Cc4ccccc4CN3)ncn2)CC1` [Example 51, 6-((1-Acetylpiperidin-4-yl)amino)-N—((R)-2-hydroxy-2-((S)-1,2,3,4-tetrahydroisoquinolin-3-yl)ethyl)pyrimidine-4-carboxamide dichloride], the IC50 in assay [1] (setting [3]) was 15 nM; in assay [2], 61 nM.

On to `CCOc1cc(C(=O)N2C3CCCC2COC3)ccc1C(=O)NC[C@@H](O)[C@@H]1Cc2ccccc2CN1` [Example 55, 4-(3-Oxa-9-azabicyclo[3.3.1]nonane-9-carbonyl)-2-ethoxy-N—((R)-2-hydroxy-2-((S)-1,2,3,4-tetrahydroisoquinolin-3-yl)ethyl)benzamide], for which the IC50 in assay [1] (setting [3]) worked out at 0.4 nM; in assay [1] (setting [4]), 0.2 nM; in assay [2], 16 nM.

As to `CCOc1cc(C(=O)N2C3CCC2COC3)c(F)cc1C(=O)NC[C@@H](O)[C@@H]1Cc2ccccc2CN1` [Example 69], the IC50 came to 3 nM in assay [1] (setting [3]) and 1300 nM in assay [2].

On to `CCOc1cc(CC(=O)N2C3CCC2COC3)ccc1C(=O)NC[C@@H](O)[C@@H]1Cc2ccccc2CN1` [Example 74], for which the results for the IC50 in assay [1] (setting [3]) and in assay [2] were 5 nM and 338 nM, respectively.

Take `CCOc1cc(CC(=O)N2CCCC2)ccc1C(=O)NC[C@@H](O)[C@@H]1Cc2ccccc2CN1` [Example 79, 2-Ethoxy-N-((R)-2-hydroxy-2-((S)-1,2,3,4-tetrahydroisoquinolin-3-yl)ethyl)-4-(2-oxo-2-(pyrrolidin-1-yl)ethyl)benzamide hydrochloride]: the IC50 came to 3 nM in assay [1] (setting [4]) and 168 nM in assay [2].

Turning to `CCOc1c(C(=O)NC[C@@H](O)[C@@H]2Cc3ccccc3CN2)ccc(C(=O)N2CCOCC2)c1C` [Example 80, 2-Ethoxy-N-((R)-2-hydroxy-2-((S)-1,2,3,4-tetrahydroisoquinolin-3-yl)ethyl)-3-methyl-4-(morpholine-4-carbonyl)benzamide hydrochloride], the figures for the IC50 in assay [1] (setting [3]) and in assay [2] were 3 nM and 161 nM, respectively.

`O=C(NC[C@@H](O)[C@@H]1Cc2ccccc2CN1)c1ccc(C(=O)N2C3CCC2COC3)cc1F` [Example 81, 4-(3-Oxa-8-azabicyclo[3.2.1]octane-8-carbonyl)-2-fluoro-N-((R)-2-hydroxy-2-((S)-1,2,3,4-tetrahydroisoquinolin-3-yl)ethyl)benzamide hydrochloride]: the results for the IC50 in assay [1] (setting [3]) and in assay [2] were 3 nM and 51 nM, respectively.

Turning to `CCOc1cc(C(=O)N2C3CCC2COC3)ncc1C(=O)NC[C@@H](O)[C@@H]1Cc2ccccc2CN1` [Example 82, 6-(3-Oxa-8-azabicyclo[3.2.1]octane-8-carbonyl)-4-ethoxy-N-((R)-2-hydroxy-2-((S)-1,2,3,4-tetrahydroisoquinolin-3-yl)ethyl)nicotinamide dihydrochloride], the IC50 was 8 nM in assay [1] (setting [4]) and 106 nM in assay [2].

On to `O=C(NC[C@@H](O)[C@@H]1Cc2ccccc2CN1)c1ccc(C(=O)N2C3CCC2COC3)cc1Cl` [Example 83, 4-(3-Oxa-8-azabicyclo[3.2.1]octane-8-carbonyl)-2-chloro-N-((R)-2-hydroxy-2-((S)-1,2,3,4-tetrahydroisoquinolin-3-yl)ethyl)benzamide], for which the IC50 came out at 4 nM in assay [1] (setting [3]) and 65 nM in assay [2].

In the case of `O=C(NC[C@@H](O)[C@@H]1Cc2ccccc2CN1)c1ccc2nc(C(F)(F)F)[nH]c2c1` [Example 84, N-((R)-2-Hydroxy-2-((S)-1,2,3,4-tetrahydroisoquinolin-3-yl)ethyl)-2-(trifluoromethyl)-1H-benzo[d]imidazole-6-carboxamide dihydrochloride], the concentration for half-maximal inhibition (IC50) in assay [1] (setting [3]) was 81 nM; in assay [2], 124 nM.

As for `COC(=O)N1CCC(Oc2ccc(C(=O)NC[C@@H](O)[C@@H]3Cc4ccccc4CN3)cn2)CC1` [Example 100, Methyl 4-((5-(((R)-2-hydroxy-2-((S)-1,2,3,4-tetrahydroisoquinolin-3-yl)ethyl)carbamoyl)pyridin-2-yl)oxy)piperidine-1-carboxylate], the IC50 in assay [1] (setting [4]) was found to be 11 nM; in assay [2], 66 nM.

On to `O=C(NC[C@@H](O)[C@@H]1Cc2ccccc2CN1)c1ccc(N2CCOCC2)nc1` [Example 101, N—((R)-2-Hydroxy-2-((S)-1,2,3,4-tetrahydroisoquinolin-3-yl)ethyl)-6-morpholinonicotinamide], for which the IC50 in assay [1] (setting [4]) came to 10 nM; in assay [2], 104 nM.

For `CC(=O)N1CCC(Oc2cc(C(=O)NC[C@@H](O)[C@@H]3Cc4ccccc4CN3)ccn2)CC1` [Example 102, 2-((1-Acetylpiperidin-4-yl)oxy)-N—((R)-2-hydroxy-2-((S)-1,2,3,4-tetrahydroisoquinolin-3-yl)ethyl)isonicotinamide], the IC50 in assay [1] (setting [3]) amounted to 5 nM; in assay [2] it was 68 nM.

For the compound `O=C(NC[C@@H](O)[C@@H]1Cc2ccccc2CN1)c1ccc(C(=O)N2C3CCCC2COC3)cc1` [Example 103, 4-(3-Oxa-9-azabicyclo[3.3.1]nonane-9-carbonyl)-N—((R)-2-hydroxy-2-((S)-1,2,3,4-tetrahydroisoquinolin-3-yl)ethyl)benzamide], the IC50 in assay [1] (setting [3]) is 4 nM; in assay [2], 65 nM.
